From paper PMC10657444, “Design and evaluation of tadpole-like conformational antimicrobial peptides” (Communications Biology, 2023)
Values after ≈ are worked out from the molar mass of the structure shown. Values joined by “and” are separate entries in the source; they are usually repeats but may differ in a detail not shown here. Identical values can stand only once. Like-named read-outs stand apart in the source and are kept apart here. Residues, ends and D or L forms follow the SMILES beside them.

Legend:
[1] = test system: K. pneumoniae ATCC 700603; type: cell-based, Klebsiella pneumoniae
Protocol: (§1) The stability of peptides in different media was assessed using the MIC assay described above. Here, the stability of HT2 and RI-HT2 in serum, salt, and different pH were analyzed using methods previously described with some modifications. For serum stability, a solution of 10% or 20% fetal bovine serum (FBS) was made by diluting fetal bovine serum with phosphate buffer saline (PBS). HT2 and RI-HT2 were added for a final concentration of 160 µg/mL of peptide in the FBS solution, and incubation 2 h. Suspension containing no peptide was considered the negative control. The MIC of HT2 and RI-HT2 against MRSA USA 300 and K. pneumoniae ATCC 700603 were measured. For the acid stability assays, the peptides were incubated with different pH values of PBS (pH = 5.5 or 6.4) at 37 °C. These peptide mixtures were then serially diluted in a 96-well plate for the evaluation of antimicrobial activity against bacterial strains. Similarly, for salt stability, the peptides were assessed for their antimicrobial activity against MRSA USA 300 and K. pneumoniae ATCC 700603 in the presence of 150 mM NaCl.

MRSA USA 300 [2] = experiment: Time-kill assay; type: cell-based, Staphylococcus aureus
Protocol: Time-kill assays were done in tubes (in 1.5 mL of LB) and antibiotics at the 1 ×, 2 ×, 4 × and 8 × MIC. Tubes were inoculated (5 × 10^6 CFU/mL) with MRSA USA 300 and K. pneumoniae ATCC 700603 and incubated at 37 °C under shaking. Serial dilutions of the cultures were plated at each desired time point (0, 1, 3, 6, and 24 h), using a multichannel pipette as follows: in line 1 of a 96-well plate, 100 µL of bacterial suspension was added, while 90 µL of 0.9% sterile saline per well was added to the other lines. At selected time points, 100 µL of bacterial suspension was transferred from the time-kill assay plate to the first line. The wells were further diluted 1 in 10 (0.9% saline) for the appropriate number of dilutions and 10 μL of each dilution was spotted in duplicate onto MH agar plates, then incubated overnight at 37°C. The colonies in each spot were counted and used to calculate the number of viable CFU/mL remaining in the original culture by considering the dilution factors.

[3] = test system: K. pneumoniae ATCC 700603; experiment: Transmission electron microscopy; type: cell-based, Klebsiella pneumoniae; conditions: 2 × MIC, 60 min
Protocol: The processing method of the samples for transmission electron microscopy (TEM) was the same as the treatment for SEM. The samples were then prefixed with 2.5% glutaraldehyde at 4°C overnight, post-fixed with osmium tetroxide for 70 min, and washed twice with PBS (pH 7.4). Subsequently, the samples were dehydrated for 10 min in a graded ethanol series (30, 50, 70, 90, and 100%) followed by 10 min in a mixture of absolute ethanol and acetone (1:1, v/v) and 10 min in absolute acetone. The specimens were transferred to a mixture of absolute acetone and epoxy resin (1:1, v/v) for 30 min and then to pure epoxy resin overnight at a constant temperature. Finally, the samples were sectioned using an ultramicrotome, stained with uranyl acetate and lead citrate, and then observed by TEM (Hitachi H-7650, Japan).

MRSA USA 300 [4] = experiment: Scanning electron microscopy; type: cell-based, Staphylococcus aureus; conditions: 2 × MIC, 60 min
Protocol: Mid-log phase bacteria (MRSA USA 300 and K. pneumoniae ATCC 700603) grown in LB broth were adjusted to a density of 5 × 10^6 CFU/mL. […] All samples were centrifuged at 8000 rpm for 5 min, washed and then resuspended in PBS. Bacterial cells were fixed with 2.5% glutaraldehyde, and then incubated at 37°C on a glass slide for 20 min. Samples were dehydrated by passing through gradient ethanol (10%, 30%, 50%, 70%, 90%, and 100%) for 5 min at each concentration. Slides were dried with an automatic critical point drying instrument (Leica EM CPD300), and a small amount of gold was sputtered onto the samples using a sputter coater system to avoid charging in the microscope. Finally, the bacteria were visualized under a field-emission scanning electron microscopy (FESEM) device (Sirion 200).

MRSA USA 300 [5] = type: cell-based, Staphylococcus aureus
Protocol: as §1

MTT cytotoxicity assay = type: cell-based, human; conditions: human
Protocol: (§2) To determine the cytotoxicity of the peptides, we used the MTT (3-(4,5)-dimethylthiahiazo (-z-y1)-3,5-di-phenytetrazoliumromide) dye reduction assay against HEK293T cells. In brief, the 100 μL of cells in 96-well plate were incubated for 24 h at 37 °C, 5% CO2, and then peptide solutions (concentrations ranging from 100 to 0.39 μM) were added and further incubated for 72 h. MTT solution (5 mg/mL) was added and further incubated for 4 h. After incubation, the precipitated MTT formazan crystal was dissolved by addition of dimethyl sulfoxide (DMSO). […]

HEK293T cells = experiment: MTT cytotoxicity assay; type: cell-based, human; conditions: for percent cell viability: HEK293T
Protocol: as §2

[6] = HEK293T cells, OD450, cytotoxicity (Fig 2a), replicates

For `CC[C@H](C)[C@H](NC(=O)[C@H](CCCNC(=N)N)NC(=O)[C@H](CCCNC(=N)N)NC(=O)[C@H](CC(C)C)NC(=O)[C@H](Cc1ccccc1)NC(=O)[C@@H](N)CCCNC(=N)N)C(=O)N[C@@H](Cc1ccccc1)C(=O)N[C@@H](Cc1ccccc1)C(=O)N[C@@H](Cc1ccccc1)C(=O)N[C@@H](Cc1ccccc1)C(N)=O` [HT2] (H-RFLRRIFFFF-NH2), the “MIC against K. pneumoniae ATCC 700603” value ([1]; 150 mM NaCl) was 12.5 µM (≈ 18.1 µg/mL), the “MIC against K. pneumoniae ATCC 700603” value ([1]; 10% FBS) was 6.25 µM (≈ 9.05 µg/mL) and the “MIC against K. pneumoniae ATCC 700603” value ([1]; 20% FBS) was 6.25 µM (≈ 9.05 µg/mL). The “MIC against K. pneumoniae ATCC 700603” value ([1]; Normal medium) was 6.25 µM (≈ 9.05 µg/mL), the “MIC against K. pneumoniae ATCC 700603” value ([1]; pH 5.5) was 12.5 µM (≈ 18.1 µg/mL) and the “MIC against K. pneumoniae ATCC 700603” value ([1]; pH 6.4) was 6.25 µM (≈ 9.05 µg/mL). The “viable count, time-kill” value (MRSA USA 300 [2]; 2 × MIC, 0 h) was 3600000 CFU/mL and 3500000 CFU/mL and 3200000 CFU/mL, the “viable count, time-kill” value (MRSA USA 300 [2]; 2 × MIC, 3 h) was 3900000 CFU/mL and 3800000 CFU/mL and the “viable count, time-kill” value (MRSA USA 300 [2]; 2 × MIC, 6 h) was 1700000 CFU/mL and 1900000 CFU/mL. The “viable count, time-kill” value (MRSA USA 300 [2]; 2 × MIC, 24 h) was 910000 CFU/mL and 920000 CFU/mL and 890000 CFU/mL, the “viable count, time-kill” value (MRSA USA 300 [2]; 4 × MIC, 0 h) was 3600000 CFU/mL and 3500000 CFU/mL and 3200000 CFU/mL and the “viable count, time-kill” value (MRSA USA 300 [2]; 4 × MIC, 1 h) was 970000 CFU/mL and 1040000 CFU/mL and 1090000 CFU/mL. The “viable count, time-kill” value (MRSA USA 300 [2]; 4 × MIC, 3 h) was 840000 CFU/mL and 870000 CFU/mL and 910000 CFU/mL, the “viable count, time-kill” value (MRSA USA 300 [2]; 4 × MIC, 6 h) was 150000 CFU/mL and 160000 CFU/mL and 180000 CFU/mL and the “viable count, time-kill” value (MRSA USA 300 [2]; 4 × MIC, 24 h) was 68000 CFU/mL and 71000 CFU/mL and 72000 CFU/mL. The “viable count, time-kill” value (MRSA USA 300 [2]; 8 × MIC, 0 h) was 3600000 CFU/mL and 3500000 CFU/mL and 3200000 CFU/mL, the “viable count, time-kill” value (MRSA USA 300 [2]; 8 × MIC, 1 h) was 990000 CFU/mL and 950000 CFU/mL and 910000 CFU/mL and the “viable count, time-kill” value (MRSA USA 300 [2]; 8 × MIC, 3 h) was 580000 CFU/mL and 590000 CFU/mL. The “viable count, time-kill” value (MRSA USA 300 [2]; 8 × MIC, 6 h) was 68000 CFU/mL and 70000 CFU/mL and 77000 CFU/mL, the “viable count, time-kill” value (MRSA USA 300 [2]; 8 × MIC, 24 h) was 1000 CFU/mL and 1100 CFU/mL and 1400 CFU/mL and the “killing outcome (in words)” value (MRSA USA 300 [2]; 8 × MIC, after 24 h) was “cannot completely be killed”. The “viable count, time-kill” value (MRSA USA 300 [2]; MIC, 0 h) was 3600000 CFU/mL and 3500000 CFU/mL and 3200000 CFU/mL, the “viable count, time-kill” value (MRSA USA 300 [2]; MIC, 1 h) was 4600000 CFU/mL and 4900000 CFU/mL and the “viable count, time-kill” value (MRSA USA 300 [2]; MIC, 3 h) was 2100000 CFU/mL and 2000000 CFU/mL and 2300000 CFU/mL. For the same compound, the “viable count, time-kill” value (MRSA USA 300 [2]; MIC, 6 h) was 2800000 CFU/mL and 2500000 CFU/mL and 1700000 CFU/mL, the “viable count, time-kill” value (MRSA USA 300 [2]; MIC, 24 h) was 4100000000 CFU/mL and 4400000000 CFU/mL and 4900000000 CFU/mL and the “membrane and intracellular structure by TEM (in words)” value [3] was “cytoplasmic membranes became blurred and separated”. The “cell surface morphology by SEM (in words)” value (MRSA USA 300 [4]) was “rough, shrunken, wrinkled and partially damaged”, the “MIC against MRSA USA 300” value (MRSA USA 300 [5]; USA 300) was 3.13 µM (≈ 4.53 µg/mL) and the “MIC against MRSA USA 300” value (MRSA USA 300 [5]; USA 300, pH 5.5) was 3.13 µM (≈ 4.53 µg/mL). For the same compound, the “MIC against MRSA USA 300” value (MRSA USA 300 [5]; USA 300, pH 6.4) was 3.13 µM (≈ 4.53 µg/mL), the IC50 at 72 h (MTT cytotoxicity assay) was > 100 µM and the viability at 72 h, 0.39 µM (MTT cytotoxicity assay; HEK293T cells, HEK293T, 0.39 µM, read-out: OD450, cytotoxicity (Fig 2a), replicates) was 96.7%. The viability at 72 h, 6.25 µM (MTT cytotoxicity assay; HEK293T cells, HEK293T, 6.25 µM, read-out: OD450, cytotoxicity (Fig 2a), replicates) was 99.2%, the viability at 72 h, 12.5 µM (MTT cytotoxicity assay; HEK293T cells, HEK293T, 12.5 µM, read-out: OD450, cytotoxicity (Fig 2a), replicates) was 92.8% and the viability at 72 h, 0.39 µM (MTT cytotoxicity assay; [6]) was 100%. It also gave a viability at 72 h, 0.78 µM (MTT cytotoxicity assay; [6]) of 94.2%, a viability at 72 h, 1.57 µM (MTT cytotoxicity assay; [6]) of 93.1% and a viability at 72 h, 3.13 µM (MTT cytotoxicity assay; [6]) of 95.4%. It also gave a viability at 72 h, 25 µM (MTT cytotoxicity assay; [6]) of 93.2%, a viability at 72 h, 50 µM (MTT cytotoxicity assay; [6]) of 98.4% and a viability at 72 h, 100 µM (MTT cytotoxicity assay; [6]) of 94.3%. For the same compound, the “toxicity / cytotoxicity against HEK293T cells (in words)” value (HEK293T cells) was “did not present”, the percent cell viability (HEK293T cells; 6.25 µM) was 93.7324 and 94.5028 and the percent cell viability (HEK293T cells; 12.5 µM) was 96.2979 and 92.259.
